In US20080227684A1, “Small Molecule Inhibitors of PDZ Interactions” (priority 2005, published 2008) one finds IC50 data, which are given here for seven molecules.

What all share (experiment): Matrix modified G-assay, small molecule competition titration
One test addresses T1, PSD95 d3 (Homo sapiens, UniProt P78352).
T1 construct: made in house
Particulars: competition with biotinylated PL peptide at GST-PDZ fusion protein; read-out: IC50 PSD95 d3 (relative binding affinity by titration analysis). The procedure:
(§1) Small Molecule Competition Assay. The reagents, supplies and protocol are as follows:
(§2) Reagents and Supplies: • (1) Nunc Maxisorp 96 well Immuno-plates • (2) PBS pH 7.4 (phosphate buffered saline, 8 g NaCl, 0.29 g KCl, 1.44 g Na2HPO4, 0.24 g • (3) KH2PO4, add H2O to 1 L and pH 7.4; 0.2μ filter) • (4) Assay Buffer: 2% BSA in PBS (20 g of BSA per liter PBS), ICN Biomedicals • (5) Goat anti-GST polyclonal antibody, stock 5 mg/ml, stored at 4° C., (Amersham Pharmacia); Diluted 1:1000 in PBS to a final concentration 5 μg/ml • (6) HRP-Streptavidin, 2.5 mg/2 ml stock stored @ 4° C., Zymed,- dilute 1:2000 into Assay buffer, final [0.5 μg/ml] • (7) Biotinylated peptides (from Anaspec, stored in −20° C. freezer) • (8) GST-PRISM proteins (stock stored @ −80° C., after 1st thaw store in −10° C. freezer) • (9) TMB (3,3′,5,5′, teramethylbensidine), ready to use • (10) 0.18M H2SO4 • (11) 12-w multichannel pipettor • (12) 200 μl LTS tips • (13) 50 ml reagent reservoirs • (14) 50 polypropylene conical tubes • (15) 15 ml polypropylene round-bottom tubes • (16) 1.5 ml microtubes • (17) Molecular Devices microplate reader (450 nm filters) • (18) SoftMax Pro software • (19) Assay buffer (1×PBS, 0.01% Triton X-100)
(§3) Protocol. The wells of eighteen to twenty 96-well plates were coated with 100 μl of 5 μg/ml anti-GST antibody (in each well), and left overnight at 4° C. The plates were then emptied by inverting and tapped dry on paper towels. 200 μl of blocking buffer (1×PBS/2% BSA) was added to each well and the plates were left for 1-2 hrs at room temperature. […] GST-PDZ fusion proteins were diluted to a final concentration of 5 μg/ml in 1×PBS/2% BSA and 50 μl was added to each well. After incubating for 1-2 hours at 4° C. excess unbound fusion protein was removed by washing, i.e., using the automatic plate washer (3× with room temperature 1×PBS).
(§4) PDZ ligand peptides, small molecule test compounds, and HRP were prepared in Assay Buffer as follows: • Biotinylated PDZ ligand synthetic peptides were prepared in one-quarter final volume, i.e., at 4× final concentration; • Steptavidin-HRP conjugate (Zymed) was diluted (1:500) in one-quarter final volume, i.e., at 4× final concentration; • Biotinylated peptides and Streptavidin-HRP were then mixed together, and incubated for 20 min at room temperature to form a signal generating peptide ligand complex; • While the peptide/HRP mix was incubating, test compound dilutions were prepared in half the final volume, i.e., at 2× final concentration; and, • Immediately before adding the final peptide ligand complex mixture to the plate, the drug titration was added to give a mixture with 1× concentrations and the final correct total volume. The signal generating peptide ligand/test compound mixtures were then added to each well of the plates to give 50 μl per well and the time of each addition was recorded. The plates were then incubated at room temperature, after the last peptide had been added, for exactly 30 min. After incubation, the plates were washed using the automatic plate washer (7× with room temperature 1×PBS). To detect the signal generating peptide ligand TMB substrate (for HRP) was added to each well of the plates at 100 μl per well and the time of TMB addition was recorded. The plates were then incubated in the dark at room temperature for a maximum of 30 min. The calorimetric reaction was then stopped using 100 μl of 0.18M H2SO4 30 minutes after adding TMB. The signal in each well of the plates were then determined by measuring the optical density at 450 nm.
(§5) The relative binding affinities of the compounds in FIG. 2A, and other, small molecule inhibitors were determined by titrating the compounds in the same competitive binding assay.

In another test the target is T2, Tip1 (Homo sapiens, UniProt O14907).
T2 construct: made in house
T2 sequence (O14907 15-112 limits assumed): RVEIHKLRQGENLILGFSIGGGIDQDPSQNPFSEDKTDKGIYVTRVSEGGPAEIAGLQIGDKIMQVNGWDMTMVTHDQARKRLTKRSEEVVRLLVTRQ
The settings on record: competition with biotinylated PL peptide at GST-PDZ fusion protein; read-out: IC50 Tip1 (relative binding affinity by titration analysis). The procedure: as §1, §2, §3, §4, §5

Another test addresses T3, Shank 1 (Homo sapiens, UniProt Q9Y566).
T3 construct: made in house
T3 sequence (Q9Y566 663-757 limits assumed): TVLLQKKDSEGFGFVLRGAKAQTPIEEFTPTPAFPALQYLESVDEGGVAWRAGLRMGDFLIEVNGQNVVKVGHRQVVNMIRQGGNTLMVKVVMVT
Particulars: competition with biotinylated PL peptide at GST-PDZ fusion protein; read-out: IC50 Shank 1 (relative binding affinity by titration analysis). The procedure:
as §1, §2, §3, §4, §5

For another test, the target named is T4, Magi1 d1 (Homo sapiens, UniProt Q96QZ7).
T4 construct: made in house
Particulars: competition with biotinylated PL peptide at GST-PDZ fusion protein; read-out: IC50 Magi1 d1 (relative binding affinity by titration analysis). The procedure:
as §1, §2, §3, §4, §5

The target in a further test is T5, PSD95 d2 (Homo sapiens, UniProt P78352).
T5 construct: made in house
The settings on record: competition with biotinylated PL peptide at GST-PDZ fusion protein; read-out: IC50 PSD95 d2 (relative binding affinity by titration analysis). The procedure:
as §1, §2, §3, §4, §5

A further test addresses T6, PSD95 d1 (Homo sapiens, UniProt P78352).
T6 construct: made in house
Particulars: competition with biotinylated PL peptide at GST-PDZ fusion protein; read-out: IC50 PSD95 d1 (relative binding affinity by titration analysis). The method, then:
as §1, §2, §3, §4, §5

T4 sequence (Q96QZ7 472-554 limits assumed): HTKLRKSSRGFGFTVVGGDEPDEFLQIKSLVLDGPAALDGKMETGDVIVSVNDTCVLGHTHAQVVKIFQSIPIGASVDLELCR

Regarding `CCOc1ccc(NS(=O)(=O)c2cccc(C(=O)Nc3ccccc3C(=O)O)c2)cc1` [Compound 3019-0348], the IC50 at PSD95 d3, at Tip1, at Shank 1, on Magi1 d1, at PSD95 d2 and at PSD95 d1 was greater than 250 µM in each case.

In the case of `Cc1ccc([N+](=O)[O-])cc1NC(=O)c1cc(S(=O)(=O)Nc2cccc(C(=O)O)c2)c(Cl)cc1Cl` [Compound 8009-5039], the IC50 at PSD95 d3, at Tip1, at Shank 1, at Magi1 d1, on PSD95 d2 and at PSD95 d1 was greater than 250 µM throughout.

For `COc1cccc(-c2nc3c(c(SCC(=O)Nc4cccc(C(=O)O)c4)n2)Cc2c(CO)cnc(C)c2O3)c1` [Compound E544-0129], the IC50 at PSD95 d3 was 3.47 µM; on Tip1 it was greater than 250 µM; on Shank 1, 7.59 µM; on Magi1 d1, 60.8 µM; on PSD95 d2, 4.98 µM; on PSD95 d1, 2.5 µM.

As to `CC(=O)N1CCc2cc(S(=O)(=O)NC(Cc3ccccc3)C(=O)Nc3ccccc3C(=O)O)ccc21` (stereo not drawn) [Compound C450-0454], the IC50 is greater than 250 µM on PSD95 d3; greater than 250 µM at Tip1; greater than 250 µM at Shank 1; greater than 250 µM on Magi1 d1; greater than 250 µM on PSD95 d2; 206 µM on PSD95 d1.

On to `CCOc1ccc(NS(=O)(=O)c2cc(C(=O)Nc3ccccc3C(=O)O)ccc2C)cc1` [Compound 3558-0042], for which the IC50 on PSD95 d3, at Tip1, at Shank 1, on Magi1 d1, at PSD95 d2 and on PSD95 d1 was greater than 250 µM each time.

On to `O=C(Nc1ccccc1C(=O)O)c1cccc(NC(=O)C(c2ccccc2)c2ccccc2)c1` [Compound 3289-2331], for which the IC50 at PSD95 d3 was greater than 250 µM; at Tip1, greater than 250 µM; on Shank 1, greater than 250 µM; on Magi1 d1, 130 µM; on PSD95 d2, greater than 250 µM; at PSD95 d1, greater than 250 µM.

In the case of `O=C(NCCO)C(=O)Nc1ccccc1C(=O)O` [MC 247808], the IC50 on PSD95 d3 was greater than 250 µM; at Tip1 it was greater than 250 µM; at Shank 1, greater than 250 µM; at Magi1 d1, greater than 250 µM; on PSD95 d2, 221 µM; at PSD95 d1 it was greater than 250 µM.
